Experiments:
mouse OPCs = test: OPC differentiation into MBP+ oligodendrocytes; format: cell-based; conditions: 72 h, seven doses 0.01-6.7 μM
Method: EpiSC-derived OPCs were seeded onto poly-D-lysine 96-well Viewplate or CellCarrier plates (PerkinElmer) coated with laminin (Sigma, L2020; 10 μgml^−1) using electronic multichannel pipetors. For the primary screen, 30,000 cells were seeded per well in screening medium (DMEM/F12 supplemented with N2 (R&D Systems), B-27 (Life Technologies), neurotrophin 3 (R&D Systems; 10 ng ml^−1), cAMP (Sigma; 50 μM), IGF-1 (R&D Systems; 100 ng ml^−1), noggin (R&D Systems; 100 ngml^−1)) and allowed to attach for 2 h before addition of drug. NIH Clinical Collection I and II drugs were added to assay plates with 0.1 ml pin replicators (Molecular Devices, Genetix; X5051), resulting in a final primary screening concentration of 5 μM. Thyroid-hormone-positive controls and DMSO vehicle controls were included in each assay plate. Cells were incubated under standard conditions (37° C., 5% CO2) for 3 days and fixed with 4% paraformaldehyde (PFA) in phosphate buffered saline (PBS). Fixed plates were permeabilized with 0.1% Triton X-100 and blocked with 10% donkey serum (v/v) in PBS for 2 h. Cells were labelled with MBP antibodies (Abcam, ab7349; 1:100) for 1 h at room temperature (˜22° C.) followed by detection with Alexa Fluorconjugated secondary antibodies (1:500) for 45 min. Nuclei were visualized by DAPI staining (Sigma; 1 μgml^−). All plates for the primary screen were processed and analyzed simultaneously to eliminate variability.
For the 5 μM in vitro screen, stained plates were imaged on the Opera confocal imaging system (PerkinElmer) and a set of 24×10 fields were collected from each well, resulting in an average of 10,000 cells being scored per well. For the dose-response (6.7 μM, 5 μM, 3.3 μM, 1.7 μM, 666 nM, 500 nM, and 333 nM) in vitro assays, plates were imaged on the Operetta High Content Imaging and Analysis system (PerkinElmer) and a set of 14×20 fields captured from each well resulting in an average of 3,300 cells being scored per well. […] Each traced nucleus region was then expanded by 50% and cross-referenced with the mature myelin protein (MBP or PLP1) stain to identify oligodendrocyte nuclei, and from this the percentage of oligodendrocytes was calculated. Processes emanating from oligodendrocyte nuclei were identified using the CSIRO2 analysis module within a custom Acapella script. Maximum mean process length (denoted ‘process length’) and mean process intensity (denoted ‘process intensity’) were generated on a per well basis. For the 5 μM in vitro screen, values were calculated and normalized to 100 for thyroid hormone (positive control)-treated wells and to 0 for DMSO(vehicle)-treated wells, on a per plate basis.

ERK1/2 = test: Western blot of ERK1/2 phosphorylation in OPCs; format: cell-based, mouse; conditions: for induction of ERK1/2 phosphorylation in OPCs: OPCs treated for 1 h
Method: EpiSC-derived OPCs were seeded into poly-Lornithine/laminin coated six-well plates and allowed to attach for 2 h in DMEM/F12 without additional factors. Cells were treated with indicated inhibitors or DMSO for 1 h-SCH772984 (ChemieTek, […]), SB590885 (Tocris, 10 nM), LY294002 (Tocris, 10 μM), and PD0325901 (Stemgent, 1 μM). Cells were then stimulated with drug or FGF2 (R&DSystems; 20 ng ml^−1) for 1 h and then lysed in 200 μL RIPA buffer (0.15 M NaCl, 0.05M Tris, pH=8.0, 1 mM EDTA, 1% Triton X-100, 0.1% SDS, 10% glycerol, HALT protease and phosphatase inhibitor (Thermo Fisher) added just before use) and incubated on ice for 20 min. Lysates were centrifuged at 4° C. and supernatant collected. Protein concentrations were determined by Pierce BCA protein assay kit (Thermo Fisher). Equal amounts of protein were resolved in a reduced manner on NuPAGE 4-12% Bis-Tris gels (Life Technologies) and transferred onto PVDF membranes (Life Technologies). Blots were blocked in either 5% BSA (phosphoprotein) or 5% milk (non phosphoprotein). Primary antibodies were all from the same vendor (Cell Signaling) and included phospho-Erk1/2 (4370S, clone D13.14.4E; 1:2,000), ERK1/2 (9107S, clone 3A7; 1:2,000), phospho-glucocorticoid receptor (4161S; 1:1,000), and glucocorticoid receptor (12041, clone D6H2L; 1:1,000) followed by incubation with HRP-conjugated secondary antibodies and chemiluminescent enhancement by West Pico substrate (Thermo Fisher).

[1] = tested on: mouse epiblast stem cell (EpiSC)-derived OPCs; test: Primary in vitro phenotypic screen of OPCs (MBP process length and intensity, high content imaging); format: cell-based; conditions: 5 μM, 72 h, 727 drugs
Method: For the primary screen, OPCs were treated with vehicle alone (0.05% (v/v)DMSO) as a negative control, thyroid hormone (a known OPC differentiation inducer) as a positive control, or drug dissolved in DMSO at a concentration of 5 μM. After 72 h, cells were fixed and labeled with antibodies to myelin basic protein (MBP) and the length and intensity of MBP labeled oligodendrocyte processes measured (FIG. 1A). These features were reliable indicators of alteration in cellular phenotype, as indicated by consistency and high signal to background ratio of positive and vehicle controls across all screening plates (FIG. 5D-G). […] On the basis of this analysis, we identified the 22 drugs that enhanced oligodendrocyte formation greater than five standard deviations above DMSO treatment and outperformed thyroid hormone in the measured parameters (FIG. 1B).
EpiSC-derived OPCs were seeded onto poly-D-lysine 96-well Viewplate or CellCarrier plates (PerkinElmer) coated with laminin (Sigma, L2020; 10 μgml^−1) using electronic multichannel pipetors. […] All plates for the primary screen were processed and analyzed simultaneously to eliminate variability.
For the 5 μM in vitro screen, stained plates were imaged on the Opera confocal imaging system (PerkinElmer) and a set of 24×10 fields were collected from each well, resulting in an average of 10,000 cells being scored per well. […]

MOG35-55 EAE mouse model = test: MOG35-55 chronic progressive EAE model
Method: Immunohistochemistry was performed as previously described. In short, tissue sections or whole slices were washed three times in PBS, blocked in PBS containing Triton X-100 (0.1%) and normal donkey serum (NDS, 2% for sections and 10% for cerebellar slices) and incubated with primary antibody overnight. For MBP immunohistochemistry, the primary antibody solution consisted of 2% NDS, 2% bovine serum albumin, and 0.1% saponin. For all other antibodies, the primary antibody solution consisted of 2% NDS and 0.1% Triton X-100. Primary antibodies used included rat anti-MBP (Abcam, ab7349; 1:100), mouse anti-APC CC1 clone (Millipore, MABC200; 1:500), and rabbit anti-IBA1 (Wako Chemicals, 019-19741; 1:1,000). The tissue was then washed in PBS and incubated in secondary antibodies for […]. Secondary detection was performed with Alexa Fluor-conjugated secondary antibodies (1:500) for 1 h. Luxol fast blue staining was performed as previously described.
Samples were processed as previously described. In short, samples were osmicated, stained en bloc with uranyl acetate, and embedded in EMbed 812, an Epon-812 substitute (EMS). Sections (1 μm) were cut and stained with toluidine blue and visualized on a light microscope (Leica DM5500B). Additional thin sections were cut, carbon coated and imaged either on a JEOL JEM-1200-EX electron microscope or a T12 electron microscope (FEI).
EAE was induced by immunizing 10-week-old C57BL/6 female mice with […] injection of […] complete Freund's adjuvant emulsion (Hooke Laboratories). One hour after immunization, mice were given 100 ng of pertussis toxin by 100 μl intraperitoneal injection. A second dose of pertussis toxin was administered the next day. EAE onset was monitored daily and scored using a clinical scale where 0 represented no abnormality; 1, limp tail; 2, limp tail and hind limb weakness; 3, hind limb paralysis; 4, hind limb paralysis and forelimb weakness; and 5, moribund. […] Once mice reached peak of disease ˜day 15; clinical score=3) they were randomized into treatment groups, and drug or vehicle (DMSO in saline) was administered intraperitoneally daily for 10 days (n=12-16 mice per group). […] Experimenters were blinded to the identity of the treatments and animals were scored daily. Cumulative disease scores for each animal were calculated during the treatment period, and a two-tailed t-test compared drug—with vehicle-treated groups. The extent of recovery for each animal was calculated as the difference between the peak disease score and the score at the end of each experiment, and a two-tailed t-test was used to compare each treatment with vehicle. External validation of MOG35-55 EAE experiments (n=12 mice per group) was performed at Hooke Laboratories with experimenters blinded to the identity of the substances.

| SMILES | induction of ERK1/2 phosphorylation in OPCs (ERK1/2) | hit status / activity in the primary screen (MBP process length and intensity) [1] | also measured |
| --- | --- | --- | --- |
| C[C@@H](c1ncncc1F)[C@](O)(Cn1cncn1)c1ccc(F)cc1F [voriconazole] | failed to induce changes in ERK1/2 phosphorylation | – | differentiation of OPCs into oligodendrocytes (mouse OPCs): did not promote the differentiation of OPCs into oligodendrocytes |
| COc1cc2c(cc1OC)C(=O)C(CC1CCN(Cc3ccccc3)CC1)C2 (centres unmarked) [Donepezil] | – | identified in the primary screen | – |
| O=C(NOC[C@H](O)CO)c1ccc(F)c(F)c1Nc1ccc(I)cc1F [PD0325901] | – | – | block of miconazole-induced ERK1/2 phosphorylation (ERK1/2; OPCs, inhibitor 1 μM for 1 h, then miconazole): blocked the ability of miconazole to induce ERK1/2 phosphorylation |
| CN1[C@@H]2CC[C@H]1C[C@@H](OC(c1ccccc1)c1ccccc1)C2 [benztropine] | did not induce ERK1/2 phosphorylation | one of the top 22 drugs | areas of myelin disruption in the white matter (luxol fast blue, MBP immunohistochemistry) (MOG35-55 EAE mouse model; cervical spinal cords): decrease in areas of myelin disruption in the white matter; functional improvement (disease score) (MOG35-55 EAE mouse model; daily i.p. for 10 days from peak of disease, miconazole 10 mg/kg, clobetasol 2 mg/kg, benztropine 10 mg/kg): functional improvement, but to a lesser extent than miconazole and clobetasol |

Source: patent publication US10653691B2, “Method of promoting remyelination” (Case Western Reserve University, priority 2013, dated 2020)
